Measurements: patent publication US20240307351A1, “AGENT FOR ANTI-AGING OR FOR CELLULAR REJUVENATION” (TOHOKU UNIVERSITY, priority 2022, published 2024)

Experiments:
[1] = Plasma metabolite analysis by CE-TOFMS in α-Klotho gene-deficient mice; format: in vivo; conditions: oral, 10 mg/kg mouse weight/day, 28 to 60 days old
Description: Water-suspended Compound #5 was orally administered to α-Klotho gene-deficient mice (28 days old) at a dose of 10 mg/kg mouse weight/day until 60 days old (Klotho homo KO mouse administration group, n=2).
In addition, water was orally administered to wild-type mice (28 days old) and α-Klotho gene-deficient mice (28 days old) until 60 days old (n=2 for each of the wild-type non-administrated group and the Klotho homo KO mouse non-administrated group).
Plasma was prepared from each 60-day-old mouse, and the effect of administration of Compound #5 on plasma metabolites was subjected to target analysis (comprehensive analysis) by CE-TOFMS (manufactured by Human Metabolome Technologies, Inc.).

[2] = system: genomic DNA of the liver cells; assay: Degree of methylation of genomic DNA of liver cells by the bisulfite method; format: in vivo, mouse; conditions: oral, 50 mg/kg/day, 2 months
Description: Water-suspended Compound #5 was orally administered to C57BL6 mice (12 weeks old) at a dose of 50 mg/kg/day per kg of mouse weight for 2 months ([MA5 high dose addition group], n=5). The degree of methylation of the genomic DNA of the liver cells of the young mice was measured by the bisulfite method.
Water-suspended Compound #5 was orally administered to C57BL6 mice (92 weeks old) at a dose of 50 mg/kg/day per kg of mouse weight for 2 months ([MA5 addition group], n=5). The degree of methylation of the genomic DNA of the liver cells of the aged mice was measured by the bisulfite method. In Table 9 and Table 10, “Count” represents how many genes were related among genes related to the pathway. For example, in a pathway involving 20 genes, when there are three genes whose expression levels have been varied by administration of Compound #5, Count is 3, and “ %” thereof is a numerical value calculated by (3/20)×100.
“P-value” represents the p-value of the between-group comparison of pathways, and “Benjamini” represents the p-value calculated using the linear step-up method of Benjamini and Hochberg (1995) (see, for example, https://david.ncifcrf.gov/helps/functional_annotation.html for calculation method).

PPARγ Gene = assay: Quantitative PCR of PPARγ Gene in brown adipocytes of Ndufs4−/− mice; format: in vivo, mouse; conditions: 10 mg/day per kg, 50 days, vs CMC administration group
Description: Compound #5 was administered to NDUFS4 homozygous knockout mice (Ndufs4−/−mice) (4 weeks old) at a dose of 10 mg/day per kg of mouse weight for 50 days ([Compound #5 administration group]).
In addition, CMC (carboxymethylcellulose) was administered to NDUFS4 homozygous knockout mice (Ndufs4−/−mice) at a dose of 10 mg/day per kg of mouse weight for 50 days ([CMC administration group; Control group]).
Brown adipocytes were collected from the mice of [Compound #5 administration group] and [CMC administration group]. Total RNA was extracted from the brown adipocytes, and cDNA was prepared therefrom and used for measurement of mRNA expression level. The measurement was performed by a quantitative PCR method. The expression level of mRNA was determined with a relative ratio to β-actin used as an internal standard. As primers and probes, the following commercially available products (manufactured by Thermo Fisher Scientific Inc., and the like) were used. • Mouse Acts (actin beta, β-actin) Mm02619580_g1, Cat #4331182 • Mouse Ucp1 (uncoupling protein 1), Mm00494069_m1, Cat #4331182 • Mouse Pparg (PPARγ, peroxisome proliferator activated receptor gamma), Mm00440945_m1, Cat #4331182p • Mouse Fabp4 (fatty acid binding protein 4), Mm00445880_m1, Cat #4331182

[3] = system: cochlear cells of the inner ear of wild-type mice; assay: RNA-Seq and ChIP-Atlas analysis of cochlear cells of wild-type mice; format: in vivo, mouse; conditions: wild-type C57BL6 mice, oral, 50 mg/kg/day, 2 weeks, Table 6
Description: Water-suspended Compound #5 was orally administered to C57BL6 mice (6 weeks old) at a dose of 50 mg/kg/day per kg of mouse weight for 2 weeks ([MA5 addition group], n=5).
In addition, water was orally administered to C57BL6 mice (6 weeks old) for […] ([Vehicle group], n=5).
RNA sequence (RNA-Seq) analysis was performed on cochlear cells of the inner ear of wild-type mice of [MA5 addition group] and [Vehicle group] described above, and genes whose expression levels changed (increased or decreased) in [MA5 addition group] as compared with [Vehicle group] were identified. Using the results of these gene names, integrated analysis with ChIP-Atlas was performed to investigate transcription factors possibly related to these genes.

[4] = system: cochlear cells of the inner ear of Ndufs4 knockout mice; assay: RNA-Seq, pathway and ChIP-Atlas analysis of cochlear cells of Ndufs4 knockout mice; format: in vivo, mouse; conditions: oral, 50 mg/kg/day, 2 weeks
Description: Water-suspended Compound #5 was orally administered to Ndufs4 (NADH-ubiquinone oxidoreductase subunit 4) knockout mice (6 weeks old) at a dose of 50 mg/kg/day per kg of mouse weight for 2 weeks ([MA5 addition group], n=5).
In addition, water was orally administered to Ndufs4 knockout mice (6 weeks old) for 2 weeks ([Vehicle group], n=5).
RNA sequence (RNA-Seq) analysis was performed on cochlear cells of the inner ear of Ndufs4 knockout mice of [MA5 addition group] and [Vehicle group] described above, and genes whose expression levels changed (increased or decreased) in [MA5 addition group] as compared with [Vehicle group] were identified. Based on the names of the genes, pathway analysis was performed on genes whose expression has varied in the inner ear cells of the Ndufs4 knockout mice in [MA5 addition group].
The results of the names of the genes whose expression levels increased or decreased in the Ndufs4 knockout mice of [MA5 addition group] as compared with the Ndufs4 knockout mice of [Vehicle group] in the RNA sequence (RNA-Seq) analysis were used to perform integrated analysis with ChIP-Atlas to investigate transcription factors possibly related to these genes.

liver cells of aged mice = assay: RNA-Seq and ChIP-Atlas analysis of liver cells of aged mice; format: in vivo, mouse; conditions: oral, 50 mg/kg/day, 2 months, Table 4
Description: Water-suspended Compound #5 was orally administered to C57BL6 mice (92 weeks old) at a dose of 50 mg/kg/day per kg of mouse weight for 2 months ([MA5 addition group], n=5). After 2 months of oral administration, the mice were 101 weeks old.
In addition, water was orally administered to C57BL6 mice (92 weeks old) for 2 months ([Vehicle group], n=5). After 2 months of oral administration, the mice were 101 weeks old.
RNA sequencing (RNA-Seq) analysis was performed on the liver cells of aged mice in [MA5 addition group] and [Vehicle group] to identify genes whose expression levels changed (increased or decreased) in [MA5 addition group] as compared with the […]. Using the results of these gene names, integrated analysis with ChIP-Atlas was performed to investigate transcription factors possibly related to these genes.

For `O=C(CC(C(=O)O)c1c[nH]c2ccccc12)c1ccc(F)cc1F` (centres unmarked) [Compound #5, 4-(2,4-difluorophenyl)-2-(1H-indole-3-yl)-4-oxo-butanoic acid], the spermidine in plasma [1] was “increased”, the “methylation of insulin resistance pathway” value ([2]; aged mice (92 weeks old)) was “inhibited” and the “methylation of insulin signaling pathway” value ([2]; aged mice (92 weeks old)) was “inhibited”. For the same compound, the “methylation of Insulin secretion pathway” value ([2]; young mice (12 weeks old)) was “inhibited”, the “methylation of Signaling pathways regulating pluripotency of stem cells” value ([2]; young mice (12 weeks old)) was “inhibited” and the “methylation of Wnt signaling pathway” value ([2]; young mice (12 weeks old)) was “inhibited”. The “expression of PPARγ Gene” value (PPARγ Gene) was “significantly higher”, the “transcription factors related to the genes whose expression increased (ChIP-Atlas)” value [3] was “SUZ^12 and EZH2” and the “IGF1 signaling pathway (pathway analysis)” value [4] was “enhanced”. For the same compound, the “transcription factors related to genes whose expression increased (ChIP-Atlas)” value ([4]; Table 5) was “SOX2 and MYC, which are reprogramming factors necessary for the production of iPS cells, and POU2F1 (OCT1)” and the “transcription factors related to genes whose expression increased (ChIP-Atlas)” value (liver cells of aged mice) was “FOXO1 known as longevity genes and PPARA”.
